{"source": "patent US11680946B1", "about": "“Detection of cholinesterase inhibition with microfluidic devices and systems thereof” (priority 2020, dated 2023)", "key": {"[1]": {"system": "acetylcholinesterase (AChE)", "assay": "SpinDx pulldown AChE activity assay in human sample matrices with or without inhibition by paraoxon", "assay_type": "biochemical", "conditions": "pooled human tears, acetylthiocholine fluorogenic substrate", "source_text": "For this reason, we developed a SpinDx-based assay to provide information on (non-specific) inhibition of cholinesterase (ChE), such that the SpinDx test at a minimum provides information similar to that which can be obtained with the existing Test-mate ChE test, but in a simpler, more portable format. The term “SpinDx-based assay,” as used herein, refers to a bead-based assay format that employs a centrifugal microfluidic disc for transporting such beads (e.g., as described in FIG. 1A-1B and FIG. 3A-3D).\nOur SpinDx assay can include components for a fluorescent analog of the Ellman's assay, loaded within the density medium. Upon spinning the disk, the capture beads, but not the blood sample or erythrocytes, will partition into the density medium. […]\nWe tested the assay extensively in buffer prior to translating to human bodily fluids, using either heat or paraoxon to inhibit the AChE cholinesterase activity. We determined that, in buffer, our limit of detection (LOD) for AChE with the SpinDx assay was between 0.005 and 0.01 mU/mL, with a limit of quantitation (LOQ) of 0.015 to 0.024 mU/mL, depending on the time of incubation (shorter incubations actually gave lower limits of detection and quantitation, perhaps because the fluorogenic assay inherently has a slow signal generation over time due to spontaneous hydrolysis of the substrate). […]"}, "[2]": {"system": "acetylcholinesterase (AChE)", "assay": "standard Abcam fluorescent AChE assay in a microplate (plate reader)", "assay_type": "biochemical", "conditions": "human tears; microtiter plate format", "source_text": "In addition, we performed side-by-side measurements of a series of samples including the human sample matrices and recombinantly expressed AChE with the SpinDx assay and with a traditional assay including a microtiter plate and plate reader (FIG. 7A-7B). The two assay formats show similar trends in the levels of activity, although certain samples (e.g., unkilled CSF) look dramatically higher in SpinDx than in the plate format."}}, "note": "Entries after “also recorded” stand apart in the source; their conditions may differ.", "data": [{"smiles": "CCOP(=O)(OCC)Oc1ccc([N+](=O)[O-])cc1", "note": "[paraoxon]", "values": [{"measurement": "reduction (kill) of cholinesterase activity by inhibitor", "setting": "[1]", "result": "could not be reduced; also recorded: can't be killed"}, {"measurement": "reduction (kill) of apparent AChE activity by inhibitor", "setting": "[2]", "result": "can't be killed"}]}]}
